Test results reported in ChEMBL document CHEMBL4000195, “Design and synthesis of novel 7-aminosubstituted pyrido[2,3-b]pyrazines exhibiting anti-breast cancer activity” (Eur J Med Chem, 2017).
Active and inactive are the calls of the source. The calls are words filed in the database; no cut-off is given here.

How the values were obtained:
[1] = Cmax in NOD/SCID mouse at 10 mg/kg, ip administered twice by LC-MS/MS method; type: ADME, organism-based; design: dose 10 mg/kg, route intraperitoneal; settings: in vivo
T47D = test: Cytotoxicity against human T47D cells at 5 uM by MTT assay; type: functional
Mus musculus [2] = test: Toxicity in NOD/SCID mouse assessed as change in body weight at 10 mg/kg, ip administered once daily for 18 days measured after 1 hr last dose; type: organism-based; settings: in vivo
Mus musculus [3] = test: Toxicity in NOD/SCID mouse assessed as phenotypic changes at 10 mg/kg, ip administered once daily for 18 days measured after 1 hr last dose; type: organism-based; settings: in vivo
[4] = Tmax in NOD/SCID mouse at 40 mg/kg, ip administered as single dose by LC-MS/MS method; type: ADME, organism-based; settings: in vivo
[5] = biological target: Receptor-interacting serine/threonine-protein kinase 3 (Homo sapiens) (UniProt Q9Y572); test: Inhibition of human RIPK3
MCF7 = test: Cytotoxicity against human MCF7 cells by MTT assay; type: functional, cell-based
[6] = biological target: Ephrin type-A receptor 1 (Homo sapiens) (UniProt P21709); test: Inhibition of human wild type partial length EPHA1 (V588 to I913 residues) expressed in bacterial expression system at 10 uM by KinomeScan method relative to control
Mus musculus [7] = test: In vivo inhibition of ERK1/2 phosphorylation at Thr202/Tyr204 residue in NOD/SCID mouse tumor xenografted with HER2-amplified human HCC1954 cells at 10 mg/kg, ip administered once daily for 18 days measured after 1 hr last dose by […]; type: functional, organism-based
[8] = biological target: Platelet-derived growth factor receptor beta (Homo sapiens) (UniProt P09619); test: Inhibition of human wild type partial length PDGFRB (V582 to Y1009 residues) expressed in bacterial expression system at 10 uM by KinomeScan method relative to control
[9] = biological target: Mitogen-activated protein kinase 3 (Homo sapiens) (UniProt P27361); test: Inhibition of human wild type full length ERK1 (M1 to P379 residues) expressed in bacterial expression system at 10 uM by KinomeScan method relative to control
[10] = biological target: Cyclin-dependent kinase 5/CDK5 activator 1 (Homo sapiens) (UniProt Q00535+Q15078); test: Inhibition of human CDK5/p25 using histone H1 as substrate in presence of [gamma33P]ATP after 30 mins by scintillation counting method; type: protein-complex assay
SK-BR-3 = test: Cytotoxicity against human SKBR3 cells by MTT assay; type: functional, cell-based
[11] = system: Phosphatidylinositol 4,5-bisphosphate 3-kinase catalytic subunit alpha isoform (Homo sapiens), P42336 [H1047Y]; test: Inhibition of human wild type partial length PIK3CA H1047Y mutant (R108 to N1068 residues) expressed in mammalian expression system at 10 uM by KinomeScan method relative to control
Sequence of Phosphatidylinositol 4,5-bisphosphate 3-kinase catalytic subunit alpha isoform (Homo sapiens), P42336 [H1047Y] (P42336 whole entry H1047Y, the tested form may be a part, canonical isoform): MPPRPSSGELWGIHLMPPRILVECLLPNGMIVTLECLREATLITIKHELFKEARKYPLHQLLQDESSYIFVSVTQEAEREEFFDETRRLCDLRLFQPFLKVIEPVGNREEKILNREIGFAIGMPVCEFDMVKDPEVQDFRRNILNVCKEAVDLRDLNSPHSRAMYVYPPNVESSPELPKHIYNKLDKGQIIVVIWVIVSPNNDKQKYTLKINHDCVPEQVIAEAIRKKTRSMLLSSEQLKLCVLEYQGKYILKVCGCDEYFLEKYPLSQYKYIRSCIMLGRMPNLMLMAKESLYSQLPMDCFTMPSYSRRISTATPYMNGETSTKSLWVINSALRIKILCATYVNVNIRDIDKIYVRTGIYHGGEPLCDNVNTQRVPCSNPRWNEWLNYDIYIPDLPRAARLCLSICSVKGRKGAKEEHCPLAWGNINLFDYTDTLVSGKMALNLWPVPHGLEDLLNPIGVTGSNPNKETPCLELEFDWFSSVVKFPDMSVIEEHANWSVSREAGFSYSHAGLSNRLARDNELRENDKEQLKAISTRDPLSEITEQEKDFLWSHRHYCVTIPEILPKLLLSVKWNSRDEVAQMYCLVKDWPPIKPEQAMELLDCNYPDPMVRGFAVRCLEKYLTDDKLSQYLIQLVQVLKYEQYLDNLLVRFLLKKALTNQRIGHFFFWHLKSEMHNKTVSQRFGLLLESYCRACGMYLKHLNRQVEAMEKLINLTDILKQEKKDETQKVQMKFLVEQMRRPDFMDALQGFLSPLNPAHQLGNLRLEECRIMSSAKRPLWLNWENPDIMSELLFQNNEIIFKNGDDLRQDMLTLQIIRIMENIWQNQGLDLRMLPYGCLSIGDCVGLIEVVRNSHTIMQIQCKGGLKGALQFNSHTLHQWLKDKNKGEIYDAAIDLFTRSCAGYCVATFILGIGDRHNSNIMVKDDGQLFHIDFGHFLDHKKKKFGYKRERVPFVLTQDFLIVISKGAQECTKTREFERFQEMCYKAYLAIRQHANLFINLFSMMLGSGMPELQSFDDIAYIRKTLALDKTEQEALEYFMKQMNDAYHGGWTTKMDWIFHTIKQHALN

[12] = biological target: Phosphatidylinositol 4,5-bisphosphate 3-kinase catalytic subunit alpha isoform (Homo sapiens, UniProt P42336, H1047R); test: Inhibition of PI3Kalpha H1047R mutant (unknown origin) using PIP2 liposomes as substrate in presence of biotin-labeled PIP3 and GST-GRP1-PH by streptavidin-HRP based assays
Sequence of Phosphatidylinositol 4,5-bisphosphate 3-kinase catalytic subunit alpha isoform (Homo sapiens, UniProt P42336, H1047R) (P42336 whole entry H1047R, canonical isoform): as the sequence (P42336 whole entry H1047Y, the tested form may be a part, canonical isoform) above, with Y1047R counted along it

[13] = biological target: Aurora kinase B/Inner centromere protein (Homo sapiens) (UniProt Q96GD4+Q9NQS7); test: Inhibition of human AURKB/INCENP; type: protein-complex assay
[14] = biological target: T1, Phosphatidylinositol 4,5-bisphosphate 3-kinase catalytic subunit alpha isoform (Homo sapiens, UniProt P42336); test: Inhibition of PI3Kalpha catalytic domain (unknown origin) at 10 uM using PIP2 liposomes as substrate in presence of biotin-labeled PIP3 and GST-GRP1-PH by streptavidin-HRP based assays
T1 sequence (P42336 whole entry, the tested form may be a part, canonical isoform): as the sequence (P42336 whole entry H1047Y, the tested form may be a part, canonical isoform) above, with Y1047H counted along it

Mus musculus [15] = test: In vivo inhibition of Akt phosphorylation at ser-473 residue in NOD/SCID mouse tumor xenografted with HER2-amplified human HCC1954 cells at 10 mg/kg, ip administered once daily for 18 days measured after 1 hr last dose by […]; type: functional, organism-based
[16] = biological target: Tyrosine-protein kinase ZAP-70 (Homo sapiens) (UniProt P43403); test: Inhibition of human wild type partial length ZAP70 (D20 to G299 residues) expressed in mammalian expression system at 10 uM by KinomeScan method relative to control
Sequence of Tyrosine-protein kinase ZAP-70 (Homo sapiens) (P43403 whole entry, the tested form may be a part): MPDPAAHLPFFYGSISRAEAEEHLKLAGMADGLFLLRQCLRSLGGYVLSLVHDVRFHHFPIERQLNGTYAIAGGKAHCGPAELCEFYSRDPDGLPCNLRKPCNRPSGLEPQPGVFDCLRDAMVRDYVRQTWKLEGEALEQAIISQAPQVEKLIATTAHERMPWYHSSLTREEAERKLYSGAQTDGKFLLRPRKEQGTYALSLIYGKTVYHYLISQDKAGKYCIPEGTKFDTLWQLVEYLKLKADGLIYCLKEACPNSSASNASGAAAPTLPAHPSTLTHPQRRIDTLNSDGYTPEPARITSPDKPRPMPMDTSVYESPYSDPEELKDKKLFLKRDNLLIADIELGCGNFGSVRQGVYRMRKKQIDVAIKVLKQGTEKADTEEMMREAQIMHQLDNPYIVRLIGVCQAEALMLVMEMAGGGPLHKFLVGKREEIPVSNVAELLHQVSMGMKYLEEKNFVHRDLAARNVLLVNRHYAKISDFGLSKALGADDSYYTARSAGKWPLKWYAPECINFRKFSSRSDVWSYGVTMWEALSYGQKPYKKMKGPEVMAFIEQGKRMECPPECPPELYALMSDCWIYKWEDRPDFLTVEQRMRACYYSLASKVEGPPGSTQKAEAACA

MDA-MB-231 = test: Cytotoxicity against human MDA-MB-231 cells by MTT assay; type: functional, cell-based
[17] = Tmax in NOD/SCID mouse at 0.5 mg/kg, po administered as single dose by LC-MS/MS method; type: ADME, organism-based; settings: in vivo
HCC1954 = test: Anti-tumor activity against HER2-amplified human HCC1954 cells xenografted in NOD/SCID mouse assessed as proliferation index at 10 mg/kg, ip administered once daily for 18 days measured after 1 hr last dose by Ki-67/hematoxylin and eosin staining based microscopic analysis (reference value: 78.4 +/- 14.8%); type: functional
[18] = Tmax in NOD/SCID mouse at 10 mg/kg, ip administered as single dose by LC-MS/MS method; type: ADME, organism-based; settings: in vivo
[19] = AUC (0 to 8 hrs) in NOD/SCID mouse at 0.5 mg/kg, po administered as single dose by LC-MS/MS method; type: ADME, organism-based; design: time < 8 hr, dose 0.5 mg/kg, route oral; settings: in vivo
[20] = Cmax in NOD/SCID mouse at 10 mg/kg, ip administered as single dose by LC-MS/MS method; type: ADME, organism-based; design: dose 10 mg/kg, route intraperitoneal; settings: in vivo
[21] = biological target: Mitogen-activated protein kinase kinase kinase 4 (Homo sapiens) (UniProt Q9Y6R4); test: Inhibition of human wild type partial length MAP3K4 (G1319 to E1608 residues) expressed in bacterial expression system at 10 uM by KinomeScan method relative to control
Mus musculus [22] = test: Toxicity in NOD/SCID mouse assessed as phenotypic changes at 0.5 mg/kg, ip administered as single dose; type: organism-based; settings: in vivo
[23] = Tmax in NOD/SCID mouse at 10 mg/kg, ip administered twice by LC-MS/MS method; type: ADME, organism-based; settings: in vivo
[24] = biological target: Macrophage colony-stimulating factor 1 receptor (Homo sapiens) (UniProt P07333); test: Inhibition of human wild type partial length CSF1R (I564 to S939 residues) expressed in bacterial expression system at 10 uM by KinomeScan method relative to control
[25] = biological target: Receptor-type tyrosine-protein kinase FLT3 (Homo sapiens) (UniProt P36888); test: Inhibition of recombinant human GST-tagged FLT3 (571 to 993 residues) transphosphorylation activity expressed in baculovirus infected Sf9 cells using poly[Glu:Tyr] (4:1) as substrate after 60 mins
[26] = biological target: T1, Phosphatidylinositol 4,5-bisphosphate 3-kinase catalytic subunit alpha isoform; test: Inhibition of PI3Kalpha catalytic domain (unknown origin) using PIP2 liposomes as substrate in presence of biotin-labeled PIP3 and GST-GRP1-PH by streptavidin-HRP based assays
[27] = biological target: Receptor tyrosine-protein kinase erbB-2 (Homo sapiens) (UniProt P04626); test: Inhibition of human wild type partial length ERBB2 (K646 to V1225 residues) expressed in mammalian expression system at 10 uM by KinomeScan method relative to control
Sequence of Receptor tyrosine-protein kinase erbB-2 (Homo sapiens) (P04626 whole entry, the tested form may be a part): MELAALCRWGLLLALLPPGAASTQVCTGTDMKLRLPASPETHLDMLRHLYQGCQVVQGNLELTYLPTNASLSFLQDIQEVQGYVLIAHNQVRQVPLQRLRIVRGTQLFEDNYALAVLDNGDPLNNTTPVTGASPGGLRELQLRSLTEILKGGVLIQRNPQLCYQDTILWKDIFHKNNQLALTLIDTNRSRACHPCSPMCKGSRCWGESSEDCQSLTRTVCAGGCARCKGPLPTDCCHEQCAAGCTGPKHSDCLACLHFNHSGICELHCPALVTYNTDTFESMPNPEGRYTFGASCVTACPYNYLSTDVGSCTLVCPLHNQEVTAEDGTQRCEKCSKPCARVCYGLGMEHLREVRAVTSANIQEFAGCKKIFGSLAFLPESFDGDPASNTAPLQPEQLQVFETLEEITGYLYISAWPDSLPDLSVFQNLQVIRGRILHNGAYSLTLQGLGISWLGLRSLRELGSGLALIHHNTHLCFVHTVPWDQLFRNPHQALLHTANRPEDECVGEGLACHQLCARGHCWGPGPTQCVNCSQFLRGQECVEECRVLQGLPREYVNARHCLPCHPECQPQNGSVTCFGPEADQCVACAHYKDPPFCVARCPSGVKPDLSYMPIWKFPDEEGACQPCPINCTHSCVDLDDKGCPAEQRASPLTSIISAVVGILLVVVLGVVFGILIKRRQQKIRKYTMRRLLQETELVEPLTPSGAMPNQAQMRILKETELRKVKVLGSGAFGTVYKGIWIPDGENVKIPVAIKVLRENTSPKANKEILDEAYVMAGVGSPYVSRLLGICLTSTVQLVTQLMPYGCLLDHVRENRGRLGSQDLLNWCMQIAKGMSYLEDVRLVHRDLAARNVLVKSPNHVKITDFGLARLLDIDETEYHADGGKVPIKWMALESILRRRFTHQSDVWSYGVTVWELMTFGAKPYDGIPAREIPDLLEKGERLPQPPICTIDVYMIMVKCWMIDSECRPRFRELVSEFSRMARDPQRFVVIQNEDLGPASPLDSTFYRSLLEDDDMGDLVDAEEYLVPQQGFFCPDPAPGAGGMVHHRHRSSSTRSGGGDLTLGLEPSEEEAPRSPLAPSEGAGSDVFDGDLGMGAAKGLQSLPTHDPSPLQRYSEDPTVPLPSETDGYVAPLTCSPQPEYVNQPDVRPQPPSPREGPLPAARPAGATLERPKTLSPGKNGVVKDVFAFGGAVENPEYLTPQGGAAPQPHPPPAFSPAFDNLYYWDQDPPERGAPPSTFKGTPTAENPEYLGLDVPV

[28] = biological target: Muscle, skeletal receptor tyrosine-protein kinase (Homo sapiens) (UniProt O15146); test: Inhibition of human wild type partial length MUSK (M553 to V869 residues) expressed in bacterial expression system at 10 uM by KinomeScan method relative to control

For `Cc1nc2nc(Sc3ccccc3)cnc2cc1NC(=O)Nc1ccccc1`, which Cmax [1] is on record?
Its Cmax is 6.45 µM.

What about the Activity (T47D) of the same molecule?
Its Activity is over 50%.

What about the Activity (Mus musculus [2]) of the same molecule?
The Activity was “Non-Toxic”.

And the Activity (Mus musculus [3])?
The Activity was “Non-Toxic”.

What about the Tmax [4] of the same molecule?
Its Tmax is 2 h.

And the inhibition [5]?
Its inhibition is “inactive”.

And the IC50 (MCF7)?
Its IC50 is 3.1 µM.

And the inhibition [6]?
Its inhibition is 9%.

What about the inhibition (Mus musculus [7]) of the same molecule?
Its inhibition is “Active”.

And the inhibition [8]?
The inhibition was 0%.

And the inhibition [9]?
Its inhibition is 11%.

And the inhibition [10]?
The inhibition was “inactive”.

What about the IC50 (SK-BR-3) of the same molecule?
The IC50 was 1.8 µM.

And the inhibition [11]?
Its inhibition is 8%.

And the IC50 [12]?
Its IC50 is 22 µM.

And the inhibition [13]?
The inhibition was “inactive”.

And the inhibition [14]?
Its inhibition is “Active”.

And the inhibition (Mus musculus [15])?
Its inhibition is “Active”.

What about the inhibition [16] of the same molecule?
The inhibition was 0%.

And the IC50 (MDA-MB-231)?
Its IC50 is 6.1 µM.

What about the Tmax [17] of the same molecule?
The Tmax was 1 h.

And the Activity_index (HCC1954)?
The Activity_index was 25.7%.

And the Tmax [18]?
Its Tmax is 2 h.

What about the AUC(0-t) at 8 h [19] of the same molecule?
Its AUC(0-t) at 8 h is 1.53 µM·h.

What about the Cmax [20] of the same molecule?
The Cmax was 4.3 to 4.32 µM.

And the inhibition [21]?
The inhibition was 16%.

And the Activity (Mus musculus [22])?
Its Activity is “Non-Toxic”.

And the Tmax [23]?
Its Tmax is 2 h.

What about the inhibition [24] of the same molecule?
Its inhibition is 0%.

What about the inhibition [25] of the same molecule?
Its inhibition is “inactive”.

What about the IC50 [26] of the same molecule?
The IC50 was 26 µM.

And the inhibition [27]?
The inhibition was 0%.

And the inhibition [28]?
The inhibition was 0%.
